Results reported in patent US20140171358A1, “ANTIMICROBIAL COMPOSITIONS COMPRISING DGLA AND NEOMYCIN SULFATE AND METHODS OF USE THEREOF” (Dignity Sciences Limited, priority 2012, published 2014).
Like-named read-outs stand apart in the source and are kept apart here.

How the values were obtained:
Assay type in all cases: cell-based
P. acnes = assay: agar dilution method: growth index and MIC on P. acnes (single compounds and combinations); set-up: key to Growth Index Plate 1 / Growth Index Plate 2 / Growth Index Plate 3 / Growth Index Avg: +++: confluent growth (comparable to control); ++: less confluent growth; +: marked reduction in growth to multiple tiny, single colonies; −: no growth present; details: for MIC: Cutibacterium acnes
Experimental: Several compounds including fatty acids such as DGLA, 15-OHEPA, and 15-HETrE were tested to determine their capacity to inhibit the growth of P. acnes. In an exemplary method, an agar dilution method was used to determine the minimum inhibitory concentration (MIC) of each tested compound. Briefly, the agar dilution method involved preparing a series of concentrations of each compound (e.g., nicotinamide, benzoyl peroxide, adapalene, metronidazole, DGLA, 15-OHEPA, and 15-HETrE) in a Reinforced Clostridial Agar (RCA) media that facilitates growth of P. acnes under anaerobic conditions. An inoculum of P. acnes was prepared by incubation of P. acnes for approximately seven days at 35-37° C. to achieve a ≧1.0 OD600 inoculum of P. acnes in RCM broth. A portion of this inoculum was then added to the surface of each plate as a 10 μL spot and incubated at 35-37° C. for 72 hours or more. Growth of P. acnes was then observed and compared to control plates in which no compound has been added, and positive inhibition plates prepared with erythromycin. […] The growth of P. acnes in the presence of nicotinamide, benzoyl peroxide, adapalene, metronidazole, DGLA, 15-OHEPA, and 15-HETrE was determined with varying concentrations of the compound (see, Table 2). Next, the MIC was determined as the concentration at which a marked reduction (+) occurs in the appearance of growth on the test plate (as per Clinical and Laboratory Standards Institute M11-A7). The compounds tested singly in Example 1 were tested in combination with one another to determine the capacity of the combination to inhibit the growth of P. acnes. In an exemplary method, the MIC was determined for each of the combination as described in Example 1. Briefly, test combinations included DGLA with nicotinamide, benzoyl peroxide, adapalene, or metronidazole; 15-HETrE with nicotinamide, benzoyl peroxide, adapalene, or metronidazole; and 15-OHEPA with nicotinamide, benzoyl peroxide, adapalene, or metronidazole. The tables below show the growth of P. acnes in the presence of 0.4 or 1.0 mg/mL DGLA with varying concentrations of nicotinamide, benzoyl peroxide, adapalene, or metronidazole (Table 3); the growth of P. acnes in the presence of 0.01 or 0.05 mg/mL 15-HETrE with varying concentrations of nicotinamide, benzoyl peroxide, adapalene, or metronidazole (Table 5); and the growth of P. acnes in the presence of 0.5 or 0.1 mg/mL 15-OHEPA with varying concentrations of nicotinamide, benzoyl peroxide, adapalene, or metronidazole (Table 7).

E. faecalis = assay: paper disc corrected zone of inhibition (CZOI) on Mueller Hinton agar
Experimental: (§1) The compounds tested in Example 1 were tested to determine their capacity to inhibit the growth of a variety of Gram-negative bacteria, Gram-positive bactgeria, fungi and yeast. In an exemplary method, Mueller Hinton agar plates were streaked with 500 μL of a 10^5 colony-forming units/mL culture and allowed to dry for at least one minute. A sterile paper disc (6 mm diameter) was then placed in the middle of each plate using sterile forceps. Twenty microliters of a solution of a known concentration of a test compound in filter-sterilized 95% ethanol were pipetted onto each test plate. Two streaked plates served as positive inhibitory controls and contained 6 mm sterile paper discs with standard tetracycline solutions. Two additional plates served as negative inhibition controls and each contained 6 mm sterile paper discs with 20 μL of filter-sterilized 95% ethanol. Two more plates served as positive growth controls and contained no paper disc or added antibacterial agent. The plates were incubated at 32.5±2° C. for 24±4 hours, after which the corrected zone of inhibition (“CZOI”) was determined as follows: For each plate, the length Y2 and width X2 of the test sample (paper disc) and length Y1 and width X1 of the clear zone were measured (FIG. 1). The CZOI was calculated from these values as shown by the equation below: [formula]

K. pneumoniae = assay: as above
Experimental: as §1

E. coli = assay: as above
Experimental: as §1

S. epidermidis = assay: as above
Experimental: as §1

C. striatum = assay: as above
Experimental: as §1

A. brasiliensis = assay: as above
Experimental: as §1

S. aureus = assay: as above
Experimental: as §1

C. albicans = assay: as above
Experimental: as §1

P. aeroginosa = assay: as above
Experimental: as §1

For `CCCCCC(O)/C=C/C=C\C/C=C\CCCCCCC(=O)O` (centres unmarked) [15-HETrE, 15-Hydroxy-eicosa-8(Z),11(Z),13 (E)-trienoic acid], the “effect on growth of P. acnes on its own” value (P. acnes; 0.01 mg/ml) was “no effect on its own”, the “Growth Index Avg” value (P. acnes; varied compound 0.00001 mg/mL) was “+++” and the “Growth Index Plate 1” value (P. acnes; varied compound 0.00001 mg/mL) was “+++”. For the same compound, the “Growth Index Plate 2” value (P. acnes; varied compound 0.00001 mg/mL) was “+++”, the “Growth Index Plate 3” value (P. acnes; varied compound 0.00001 mg/mL) was “+++” and the “Growth Index Avg” value (P. acnes; varied compound 0.0001 mg/mL) was “+++”. For the same compound, the “Growth Index Plate 1” value (P. acnes; varied compound 0.0001 mg/mL) was “+++”, the “Growth Index Plate 2” value (P. acnes; varied compound 0.0001 mg/mL) was “+++” and the “Growth Index Plate 3” value (P. acnes; varied compound 0.0001 mg/mL) was “+++”. The “Growth Index Avg” value (P. acnes; varied compound 0.001 mg/mL) was “+++”, the “Growth Index Plate 1” value (P. acnes; varied compound 0.001 mg/mL) was “+++” and the “Growth Index Plate 2” value (P. acnes; varied compound 0.001 mg/mL) was “+++”. The “Growth Index Plate 3” value (P. acnes; varied compound 0.001 mg/mL) was “+++”, the “Growth Index Avg” value (P. acnes; varied compound 0.01 mg/mL) was “++” and the “Growth Index Plate 1” value (P. acnes; varied compound 0.01 mg/mL) was “++”. The “Growth Index Plate 2” value (P. acnes; varied compound 0.01 mg/mL) was “+++”, the “Growth Index Plate 3” value (P. acnes; varied compound 0.01 mg/mL) was “++” and the “Growth Index Avg” value (P. acnes; varied compound 0.05 mg/mL) was “−”. For the same compound, the “Growth Index Plate 1” value (P. acnes; varied compound 0.05 mg/mL) was “−”, the “Growth Index Plate 2” value (P. acnes; varied compound 0.05 mg/mL) was “−” and the “Growth Index Plate 3” value (P. acnes; varied compound 0.05 mg/mL) was “−”. The “Average CZOI” value (E. faecalis; 0.005 mg/mL) was 3.75 mm, the “Average CZOI” value (E. faecalis; 0.01 mg/mL) was 5.75 mm and the “Average CZOI” value (E. faecalis; 0.05 mg/mL) was 3.75 mm. For the same compound, the “Average CZOI” value (E. faecalis; 0.1 mg/mL) was 3.25 mm, the “Average CZOI” value (E. faecalis; 0.5 mg/mL) was 2.75 mm and the “Lowest Concentration With Observed Inhibition” value (E. faecalis; E. faecalis) was 0.005 mg/mL. The “Most Effective Concentration Observed” value (E. faecalis; E. faecalis) was 0.01 mg/mL, the “Average CZOI” value (K. pneumoniae; 0.005 mg/mL) was 2.5 mm and the “Average CZOI” value (K. pneumoniae; 0.01 mg/mL) was 2 mm. For the same compound, the “Average CZOI” value (K. pneumoniae; 0.05 mg/mL) was 1 mm, the “Average CZOI” value (K. pneumoniae; 0.1 mg/mL) was 1.5 mm and the “Average CZOI” value (K. pneumoniae; 0.5 mg/mL) was 1 mm. The “Lowest Concentration With Observed Inhibition” value (K. pneumoniae; K. pneumoniae) was 0.005 mg/mL, the “Most Effective Concentration Observed” value (K. pneumoniae; K. pneumoniae) was 0.005 mg/mL and the “Average CZOI” value (E. coli; 0.005 mg/mL) was 1.5 mm. For the same compound, the “Average CZOI” value (E. coli; 0.01 mg/mL) was 2 mm, the “Average CZOI” value (E. coli; 0.05 mg/mL) was 1 mm and the “Average CZOI” value (E. coli; 0.1 mg/mL) was 1.25 mm. The “Average CZOI” value (E. coli; 0.5 mg/mL) was 1 mm, the “Lowest Concentration With Observed Inhibition” value (E. coli; E. coli) was 0.005 mg/mL and the “Most Effective Concentration Observed” value (E. coli; E. coli) was 0.01 mg/mL. The “Average CZOI” value (S. epidermidis; 0.005 mg/mL) was 1.75 mm, the “Average CZOI” value (S. epidermidis; 0.01 mg/mL) was 3 mm and the “Average CZOI” value (S. epidermidis; 0.05 mg/mL) was 1 mm. For the same compound, the “Average CZOI” value (S. epidermidis; 0.1 mg/mL) was 1 mm, the “Average CZOI” value (S. epidermidis; 0.5 mg/mL) was 1.75 mm and the “Lowest Concentration With Observed Inhibition” value (S. epidermidis; S. epidermidis) was 0.005 mg/mL. For the same compound, the “Most Effective Concentration Observed” value (S. epidermidis; S. epidermidis) was 0.01 mg/mL, the “Average CZOI” value (C. striatum; 0.005 mg/mL) was 4 mm and the “Average CZOI” value (C. striatum; 0.01 mg/mL) was 3.25 mm. The “Average CZOI” value (C. striatum; 0.05 mg/mL) was 2.25 mm, the “Average CZOI” value (C. striatum; 0.1 mg/mL) was 3.25 mm and the “Average CZOI” value (C. striatum; 0.5 mg/mL) was 1.5 mm. For the same compound, the “Lowest Concentration With Observed Inhibition” value (C. striatum; C. striatum) was 0.005 mg/mL, the “Most Effective Concentration Observed” value (C. striatum; C. striatum) was 0.05 mg/mL and the “Average CZOI” value (A. brasiliensis; 0.005 mg/mL) was 1.75 mm. The “Average CZOI” value (A. brasiliensis; 0.01 mg/mL) was 1 mm, the “Average CZOI” value (A. brasiliensis; 0.05 mg/mL) was 1.25 mm and the “Average CZOI” value (A. brasiliensis; 0.1 mg/mL) was 2.25 mm. For the same compound, the “Average CZOI” value (A. brasiliensis; 0.5 mg/mL) was 3 mm, the “Lowest Concentration With Observed Inhibition” value (A. brasiliensis; A. brasiliensis) was 0.005 mg/mL and the “Most Effective Concentration Observed” value (A. brasiliensis; A. brasiliensis) was 0.5 mg/mL. The “Average CZOI” value (S. aureus; 0.005 mg/mL) was 2 mm, the “Average CZOI” value (S. aureus; 0.01 mg/mL) was 2.5 mm and the “Average CZOI” value (S. aureus; 0.05 mg/mL) was 0.75 mm. The “Average CZOI” value (S. aureus; 0.1 mg/mL) was 1.75 mm, the “Average CZOI” value (S. aureus; 0.5 mg/mL) was 1 mm and the “Lowest Concentration With Observed Inhibition” value (S. aureus; S. aureus) was 0.005 mg/mL. For the same compound, the “Most Effective Concentration Observed” value (S. aureus; S. aureus) was 0.01 mg/mL, the “Average CZOI” value (C. albicans; 0.005 mg/mL) was 2 mm and the “Average CZOI” value (C. albicans; 0.01 mg/mL) was 1.75 mm. The “Average CZOI” value (C. albicans; 0.05 mg/mL) was 1.25 mm, the “Average CZOI” value (C. albicans; 0.1 mg/mL) was 1.5 mm and the “Average CZOI” value (C. albicans; 0.5 mg/mL) was 1.25 mm. The “Lowest Concentration With Observed Inhibition” value (C. albicans; C. albicans) was 0.005 mg/mL, the “Most Effective Concentration Observed” value (C. albicans; C. albicans) was 0.005 mg/mL and the “Average CZOI” value (P. aeroginosa; 0.005 mg/mL) was 1.5 mm. For the same compound, the “Average CZOI” value (P. aeroginosa; 0.01 mg/mL) was 1.5 mm, the “Average CZOI” value (P. aeroginosa; 0.05 mg/mL) was 1 mm and the “Average CZOI” value (P. aeroginosa; 0.1 mg/mL) was 1.5 mm. For the same compound, the “Average CZOI” value (P. aeroginosa; 0.5 mg/mL) was 1 mm, the “Lowest Concentration With Observed Inhibition” value (P. aeroginosa; P. aeroginosa) was 0.005 mg/mL and the “Most Effective Concentration Observed” value (P. aeroginosa; P. aeroginosa) was 0.005 mg/mL.

`COc1ccc(-c2ccc3cc(C(=O)O)ccc3c2)cc1C12CC3CC(CC(C3)C1)C2` [Adapalene] was tested, and the MIC (P. acnes; read-out: MIC (mg/mL) with 0.01 mg/mL 15-HETrE spike) was 0.6 to 0.7 mg/mL, the MIC (P. acnes; read-out: MIC (mg/mL) with 0.05 mg/mL 15-OHEPA spike) was > 0.8 mg/mL and the MIC (P. acnes; with 0.05 mg/mL 15-HETrE (inhibitory concentration), read-out: MIC (mg/mL) with 0.05 mg/mL 15-HETrE spike) was < 0.2 mg/mL. For the same compound, the MIC (P. acnes; with 0.1 mg/mL 15-OHEPA (inhibitory concentration), read-out: MIC (mg/mL) with 0.1 mg/mL 15-OHEPA spike) was < 0.2 mg/mL, the MIC (P. acnes; with 0.4 mg/mL dGLA (Sigma), read-out: MIC (mg/mL) with 0.4 mg/mL dGLA spike) was > 0.6 mg/mL and the MIC (P. acnes; with 1.0 mg/mL dGLA (Cayman), read-out: MIC (mg/mL) with 1.0 mg/mL dGLA spike) was > 0.6 mg/mL. For the same compound, the “growth of P. Acnes with the combination compared with 15-OHEPA used alone” value (P. acnes; in combination with 15-OHEPA) was “did not reduce the growth of P. Acnes below that of 15 OHEPA used alone” and the “growth of P. Acnes with the combination compared with DGLA used alone” value (P. acnes; in combination with DGLA) was “did not reduce the growth of P. Acnes below that of DGLA used alone”.
